Like-named read-outs stand apart in the source and are kept apart here.
Experiments:
[1] = system: inflammatory pain (mechanical hyperalgesia); format: in vivo, Sprague-Dawley rats
Description: The effect of orally administered zoledronic acid on inflammatory pain was examined using the rat complete Freund's adjuvant (CFA) model. Inflammatory pain was induced by injection of 100% CFA in a 75 μL volume into the left hind paws of Sprague-Dawley rats on day 0, followed by assessments on days 1-3. Animals were orally administered vehicle (control), zoledronic acid 18 mg/m^2 (or 3 mg/kg), zoledronic acid 120 mg/m^2 (or 20 mg/kg), or zoledronic acid 900 mg/m^2 (or 150 mg/kg) daily on days 1-3. Drug was dissolved in distilled water and prepared fresh daily. Animals were fasted prior to dosing. Under current FDA guidelines for extrapolating starting dosages from animals to humans, dosages expressed in mg/m^2 are considered equivalent between mammalian species. Thus, for example, 18 mg/m^2 in a rat is considered equivalent to 18 mg/m^2 in a human being, while 3 mg/kg in a rat may not be equivalent to 3 mg/kg in a human being.
Values for inflammatory pain (mechanical hyperalgesia) in the vehicle and drug-treated animals were obtained on day 0 prior to CFA injection, and at baseline and post-treatment on days 1-3. Pain was assessed using a digital Randall-Selitto device (dRS; IITC Life Sciences, Woodland Hills, Calif.). Animals were placed in a restraint sling that suspended the animal, leaving the hind limbs available for testing. Paw compression threshold was measured by applying increasing pressure to the plantar surface of the hind paw with a dome-shaped tip placed between the 3rd and 4th metatarsus. Pressure was applied gradually over approximately 10 seconds. Measurements were taken from the first observed nocifensive behavior of vocalization, struggle or withdrawal. A cut-off value of 300 g was used to prevent injury to the animal.
Reversal of inflammatory pain was calculated according to the formula:
% reversal=(Post-treatment−Post-CFA baseline)/(Pre-CFA baseline−Post-CFA baseline)×100.
The experiment was carried out using 9-10 animals per group.

[2] = system: complex regional pain syndrome (CRPS); experiment: rat tibia fracture model of complex regional pain syndrome (CRPS): von Frey, weight bearing, edema, warmth; format: in vivo; conditions: oral 18 mg/m^2/day (3 mg/kg/day) for 28 days
Description: The effect of orally administered zoledronic acid was examined in the rat tibia fracture model of complex regional pain syndrome (CRPS). CRPS was induced in the rats by fracturing the right distal tibias of the animals and casting the fractured hindpaws for 4 weeks, as described in Guo T Z et al. (Pain. 2004; 108:95-107).
Animals were orally administered either vehicle (control) or zoledronic acid, in a dosage of 18 mg/m^2/day (3 mg/kg/day) for 28 days, starting on the day of fracture and casting. Drug was dissolved in distilled water and administered by gavage. Animals were fasted for 4 hours before and 2 hours after dosing. At the end of the 28-day period, casts were removed, and on the following day, the rats were tested for hindpaw pain, edema, and warmth.
Pain was assessed by measuring hyperalgesia, and weight bearing. […]
An incapacitance device (IITC Inc. Life Science, Woodland, Calif., USA) was used to measure hindpaw weight bearing, a postural effect of pain. […] Eight readings (excluding the highest and lowest ones) were averaged to calculate the bilateral hindpaw weight-bearing values. Weight bearing data were analyzed as the ratio between right (fracture) and left hindpaw weight bearing values ((2R/(R+L))×100%). […]
The temperature of the hindpaw was measured using a fine wire thermocouple (Omega, Stanford, Conn., USA) applied to the paw skin. […]

O=P(O)(O)C(O)(Cn1ccnc1)P(=O)(O)O [zoledronic acid]
paw compression thresholds versus vehicle ([1]; oral 18 mg/m^2, entire measurement period after 30 minutes from start of treatment): higher than for vehicle
paw compression thresholds versus vehicle ([1]; oral 120 mg/m^2 (20 mg/kg), all time points): approximately equal or inferior to vehicle
toxicity ([1]; oral 900 mg/m^2 (150 mg/kg) daily days 1-3, two days after cessation of dosing): significant toxicity necessitating euthanization of all the animals in this group
paw compression thresholds versus vehicle ([1]; oral 900 mg/m^2, day three): greater than for vehicle
paw compression thresholds versus vehicle ([1]; two higher doses (120 and 900 mg/m^2), first two days of dosing): lower than vehicle
hindlimb weight bearing on fracture hindlimb [2]: 86 % of normal

Source: patent publication US20130303487A1, “Compositions Comprising Zoledronic Acid or Related Compounds for Relieving Inflammatory Pain and Related Conditions” (priority 2012, published 2013)
